Measurements reported in PubChem BioAssay (NCI).
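Step 1: Grow cells in 96-well plates. Step 2: Expose to compound for 48 hours at 5 concentrations. Step 3: Interpolate endpoints linearly; if unreached, use highest concentration. Abbreviation: GI50, concentration required for 50% inhibition of growth. TGI marks complete inhibition of growth.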 Where a SMILES comes first, the peptide text is derived from it. [ ]: non-standard residue; d: D form. The star is where a group is joined. Phe(4-NO2) = N[CH](Cc1ccc([N+](=O)[O-])cc1)C(=O)O; Boc = CC(C)(C)OC(=O)*

Key:
Assay in all cases: DTP human tumour cell line panel, 48 h
[1] = tested on: UO-31 renal
[2] = tested on: OVCAR-8 ovarian
[3] = tested on: SK-MEL-5 melanoma
[4] = tested on: A549 NSCLC
[5] = tested on: NCI-H23 lung
[6] = tested on: M14 melanoma
[7] = tested on: HT29 colon
[8] = tested on: OVCAR-5 ovarian
[9] = tested on: A498 renal
[10] = tested on: SNB-19 CNS

| SMILES | TGI [1] | TGI [2] | TGI [3] | TGI [4] | TGI [5] | TGI [6] | TGI [7] | TGI [8] | TGI [9] | TGI [10] | GI50 [1] | GI50 [2] | GI50 [3] | GI50 [4] | GI50 [5] | GI50 [6] | GI50 [7] | GI50 [8] | GI50 [9] | GI50 [10] |
| --- | --- | --- | --- | --- | --- | --- | --- | --- | --- | --- | --- | --- | --- | --- | --- | --- | --- | --- | --- | --- |
| CCCC1=C(OC)C(=O)c2c(C)cc(Cl)nc2C1=O | 26.5 µM | 23.7 µM | 16.7 µM | 26.9 µM | 13.7 µM | 18.9 µM | 8.45 µM | 29.1 µM | 35 µM | 34.9 µM | – | – | – | – | – | – | – | – | – | – |
| O=Nc1c(-c2c(O)[nH]c3ccc(I)cc23)[nH]c2ccccc12 | 5.43 µM | > 43.4 µM | > 100 µM | > 30.4 µM | > 100 µM | > 100 µM | > 21.6 µM | > 27.1 µM | > 27.6 µM | > 62.1 µM | – | – | – | – | – | – | – | – | – | – |
| NC1CCCCC1NCCNC1CCCCC1N (stereo not given) | > 100 µM | > 100 µM | > 100 µM | 87.6 µM | 96.8 µM | > 100 µM | 36 µM | 56.6 µM | > 100 µM | > 100 µM | – | – | – | – | – | – | – | – | – | – |
| O=C(O)Cn1c2c(c3c1-c1ccccc1C3=O)C(=O)CCC2 | > 100 µM | > 100 µM | > 100 µM | > 100 µM | > 100 µM | > 100 µM | > 100 µM | > 100 µM | > 100 µM | > 100 µM | > 100 µM | > 100 µM | > 100 µM | > 100 µM | > 100 µM | > 100 µM | > 100 µM | > 100 µM | > 100 µM | > 100 µM |
| COc1ccc(/C=c2\[nH]c3nc(=O)c(N4CCCCC4)c(N)n3c2=O)cc1 | > 100 µM | > 100 µM | > 100 µM | > 100 µM | > 100 µM | > 100 µM | > 100 µM | > 100 µM | > 100 µM | > 100 µM | – | – | – | – | – | – | – | – | – | – |
| COC(=O)[C@@H](NS(=O)(=O)CC12CCC(CC1)C2(C)C)C(C)(C)C | > 100 µM | > 100 µM | > 100 µM | > 100 µM | > 100 µM | > 100 µM | > 100 µM | > 100 µM | > 100 µM | > 100 µM | – | – | – | – | – | – | – | – | – | – |
| Cc1cc2c(=O)c3ccc(Cl)cc3[nH]c2c(C(N)=O)c1C | > 100 µM | > 100 µM | > 100 µM | > 100 µM | > 100 µM | > 100 µM | > 100 µM | > 100 µM | > 100 µM | > 100 µM | – | – | – | – | – | – | – | – | – | – |
| O=C1CC(c2ccsc2)n2cccc21 (stereo not given) | > 100 µM | > 100 µM | > 100 µM | > 100 µM | > 100 µM | > 100 µM | > 100 µM | > 100 µM | > 100 µM | > 100 µM | – | – | – | – | – | – | – | – | – | – |
| N/N=C(/N)SCCCCCCCCCCS/C(N)=N/N | 78.9 µM | 39.3 µM | 49 µM | 50.3 µM | > 100 µM | > 100 µM | 27.7 µM | > 100 µM | 43.8 µM | > 100 µM | – | – | – | – | – | – | – | – | – | – |
| C=C(CN(CC)CC)C1(c2ccccc2)CC2(CCCC2)C(=O)O1 (stereo not given) | > 100 µM | > 100 µM | > 100 µM | > 100 µM | 98.9 µM | > 100 µM | 77.9 µM | > 100 µM | > 100 µM | > 100 µM | – | – | – | – | – | – | – | – | – | – |
| Cc1cn(C2CC(COCc3ccccc3)N(CCO[Si](C)(C)C(C)(C)C)O2)c(=O)[nH]c1=O (stereo not given) | 28.2 µM | 28.8 µM | 12.9 µM | 28.4 µM | 30.7 µM | 29.5 µM | 28.7 µM | 32 µM | 36.8 µM | 27.2 µM | – | – | – | – | – | – | – | – | – | – |
| Cc1ccc(-n2nncc2[Si](C)(C)C)s1 | > 100 µM | > 100 µM | > 100 µM | > 100 µM | > 100 µM | > 100 µM | > 100 µM | > 100 µM | > 100 µM | > 100 µM | – | – | – | – | – | – | – | – | – | – |
| CC(OP(=O)(O)O)C(N)C(=O)O (stereo not given) | > 100 µM | > 100 µM | > 100 µM | > 100 µM | > 100 µM | > 100 µM | > 100 µM | > 100 µM | > 100 µM | > 100 µM | – | – | – | – | – | – | – | – | – | – |
| CC(=O)/C=C/c1ccccc1 | > 100 µM | 72.9 µM | 61.2 µM | > 100 µM | 85.5 µM | 85 µM | > 100 µM | > 100 µM | 76.3 µM | > 100 µM | – | – | – | – | – | – | – | – | – | – |
| COc1ccc(OC)c2c(C)ccnc12 | 74.3 µM | > 79.2 µM | > 84.4 µM | 97.7 µM | > 96.1 µM | 34.3 µM | > 100 µM | > 100 µM | > 100 µM | > 100 µM | – | – | – | – | – | – | – | – | – | – |
| O=C1C=CC(=O)c2c(O)c(N3CCOCC3)c(Cl)c(O)c21 | 0.892 µM | 1 µM | 0.822 µM | 3.85 µM | 0.589 µM | 0.358 µM | 0.586 µM | 1.76 µM | 3.01 µM | 3.17 µM | – | – | – | – | – | – | – | – | – | – |
| CCOC(=O)c1c(N2CCCC2)[nH]c(=O)c(C(c2ccc(N(C)C)cc2)c2c(O)c(C(=O)OCC)c(N3CCCC3)[nH]c2=O)c1O | > 100 µM | > 100 µM | > 100 µM | > 100 µM | > 100 µM | > 100 µM | > 100 µM | > 100 µM | > 100 µM | > 100 µM | – | – | – | – | – | – | – | – | – | – |
| CCOC(=O)c1cc2c3c(c(C(C)=O)c(OC)c2[nH]1)N(C(=O)CC)CC3 | 27 µM | 46.9 µM | 24.5 µM | 38.7 µM | 25 µM | 50.5 µM | 30.5 µM | 89.5 µM | > 100 µM | 26.5 µM | – | – | – | – | – | – | – | – | – | – |
| CCOc1ccc2nc3nc(=O)[nH]c(C)c3c(NC(C)(CO)CO)c2c1 | > 100 µM | > 100 µM | > 100 µM | > 100 µM | > 100 µM | > 100 µM | > 100 µM | > 100 µM | > 100 µM | > 100 µM | – | – | – | – | – | – | – | – | – | – |
| Nc1ccc2c(=O)cc(-c3ccc(Br)s3)[nH]c2n1 | > 23.2 µM | > 57.2 µM | 11.3 µM | > 44.8 µM | > 23.4 µM | 45.3 µM | > 44.2 µM | > 100 µM | > 100 µM | > 100 µM | – | – | – | – | – | – | – | – | – | – |
| O=c1cc(-c2ccccc2)oc2c1ccc1[nH]c3ccccc3c(=O)c12 | > 100 µM | > 100 µM | > 100 µM | > 100 µM | > 100 µM | > 100 µM | > 100 µM | > 100 µM | > 100 µM | > 100 µM | – | – | – | – | – | – | – | – | – | – |
| O=C(Nc1ccc(-n2cc(-c3ccncc3)c(-c3ccc(O)c(Cl)c3)n2)cc1)c1ccc(Cl)c(C(F)(F)F)c1 | 28.3 µM | 9.58 µM | 5.67 µM | > 50 µM | > 50 µM | 2.08 µM | 2.72 µM | > 50 µM | > 50 µM | > 50 µM | 2.65 µM | 1.84 µM | 1.46 µM | 2.09 µM | 2.55 µM | 0.946 µM | 1.2 µM | 10.1 µM | 41.7 µM | 2.52 µM |
| Cn1c2ccccc2n2c3ncccc3c(=O)cc12 | > 100 µM | > 100 µM | > 100 µM | > 100 µM | > 100 µM | > 100 µM | > 100 µM | > 100 µM | > 100 µM | > 100 µM | – | – | – | – | – | – | – | – | – | – |
| COc1cc2c3c(n(C)c(=O)c2cc1OC)-c1cc2c(cc1/C3=C\CCCCCBr)OCO2 | 47.8 µM | > 100 µM | 20.7 µM | > 100 µM | > 100 µM | > 100 µM | > 100 µM | > 100 µM | 46 µM | > 100 µM | – | – | – | – | – | – | – | – | – | – |
| O=C1Nc2cccc(Cl)c2/C1=C\c1c(-c2ccccc2)nc2n1CCS2 | 48.8 µM | 83.6 µM | 51.6 µM | 49.1 µM | 88.7 µM | 45.2 µM | 42.5 µM | 48.2 µM | 39.4 µM | 66.1 µM | – | – | – | – | – | – | – | – | – | – |
| c1ccc2c(Nc3ncco3)cccc2c1 | > 10 µM | > 10 µM | > 10 µM | > 10 µM | > 10 µM | > 10 µM | > 10 µM | > 10 µM | > 10 µM | > 10 µM | – | – | – | – | – | – | – | – | – | – |
| CCOC(=O)CCC(NC(=O)C(Cc1ccc([N+](=O)[O-])cc1)NC(=O)OC(C)(C)C)C(=O)NC(CCC(=O)OCC)C(=O)OCC (stereo not given) (Boc-[Phe(4-NO2)]-Glu(OEt)-Glu(OEt)-OEt; configuration not given here) | > 100 µM | 40.3 µM | 31.2 µM | > 100 µM | 31.8 µM | 35.9 µM | 31.5 µM | 46.3 µM | 36.4 µM | > 100 µM | – | – | – | – | – | – | – | – | – | – |
| CCOC(=O)C1CCC(=O)N1C(=O)c1cccc(Cl)c1 (stereo not given) | > 100 µM | > 100 µM | > 100 µM | > 100 µM | > 100 µM | > 100 µM | > 100 µM | > 100 µM | > 100 µM | > 100 µM | – | – | – | – | – | – | – | – | – | – |
